Source: patent US11926845B2, “Cell culture method and automatic cell culture apparatus” (Hitachi, Ltd., priority 2020, dated 2024)

How the values were obtained:
[1] = system: human iPS cells (201B7 strain); assay: hCG secretion into culture supernatant (ELISA) of 201B7 strain cultured on coated planar mesh; type: cell-based
Method: In the present example, the human iPS cells (201B7 strain) were cultured by using a culture substrate in which the planar mesh made of nickel was coated with parylene or Au, and an effect of the ROCK inhibitor on cell differentiation was investigated.
A cell culture substrate was prepared in the same procedure as in the first example. The i-Matrix (Nippi Inc.) adjusted to a concentration of 50 ng/μl as a scaffold material of cells was added so as to cover the mesh and the mixture was treated at 4° C. for 3 days. Thereafter, after i-Matrix was removed, and the washing was performed with an Essential 8 medium (GIBCO Co.), the human iPS cells (201B7 strain) was adjusted in the Essential 8 medium so as to be 1×10^5/ml, and an iPS cell suspension containing 10 μM of the ROCK inhibitor (Y-27632, Wako Pure Chemical Co.) was added on the mesh in the same manner as the scaffold material, and the cells were incubated at 37° C. in the cell culture apparatus adjusted to the CO2 concentration of 5%.
After 24 hours from seeding, a total amount of iPS cell suspension was removed and replaced with a new Essential 8 medium, so that the ROCK inhibitor was completely removed once. Then, every 4 days, half the amount of culture supernatant was recovered, and the amount of culture supernatant was maintained by adding a new Essential 8 medium in an amount equal to a removed amount. The ROCK inhibitor (Y-27632, Wako Pure Chemical Co.) was added to a part of the medium of the cell culture substrate on which the 201B7 strain is seeded from Day 9 of culturing or Day 13 of the culturing so that the final concentration of the ROCK inhibitor was 20 μM, and the culturing was performed for 3 weeks.
(§1) A secretion amount of hCG, which is one of trophoblast differentiation markers, was quantified by using the recovered culture supernatant. For the quantification, a value of OD450 was detected with an absorbance plate reader (Corona Electric Co. Ltd.) by using a Human hCG ELISA Kit (Abcam Co.). Details of an ELISA reaction and a measurement method followed a manual of a kit.

253G1 strain = assay: hCG secretion into culture supernatant (ELISA) of 253G1 strain cultured on coated planar mesh; type: cell-based, human; conditions: for secretion amount of hCG, increase as compared with the case where the ROCK inhibitor was not added / secretion amount of hCG, course after the increase: 253G1 strain; for secretion amount of hCG, course after the increase: after Day 17
Method: Preparation of the cell culture substrate and seeding of the iPS cells were carried out in the same manner as in the second example. After 24 hours from seeding, a total amount of iPS cell suspension was removed and replaced with a new Essential 8 medium, so that the ROCK inhibitor was completely removed once. Then, every 4 days, half the amount of the culture supernatant was recovered, and the amount of culture supernatant was maintained by adding a new Essential 8 medium in an amount equal to a removed amount. The ROCK inhibitor (Y-27632, Wako Pure Chemical Co.) was added to a part of the medium of the cell culture substrate on which the 253G1 strain is seeded from Day 9 of culturing or Day 13 of the culturing so that a final concentration was 20 μM, and the culturing was performed for 3 weeks.
as §1, with “The secretion” for “A secretion”, “quantification, the” for “quantification, a”, “detected by” for “detected with”, “Electric Co.)” for “Electric Co. Ltd.)”

secretion amount of hCG, increase as compared with the case where the ROCK inhibitor was not added (253G1 strain; mesh coated with Au, 20 μM added from Day 9 of culturing, on Day 17): about twice | secretion amount of hCG, increase as compared with the case where the ROCK inhibitor was not added (253G1 strain; mesh coated with Au, 20 μM added from Day 9 of culturing, on Day 21): about three times | secretion amount of hCG, increase as compared with the case where the ROCK inhibitor was not added (253G1 strain; mesh coated with Au, 20 μM added from Day 13 of culturing, on Day 17): five times | secretion amount of hCG, increase as compared with the case where the ROCK inhibitor was not added (253G1 strain; mesh coated with parylene, 20 μM added from Day 9 of culturing, on Day 17): about ten times | secretion amount of hCG, increase as compared with the case where the ROCK inhibitor was not added (253G1 strain; mesh coated with parylene, 20 μM added from Day 13 of culturing, on Day 21): three times
SMILES: C[C@@H](N)[C@H]1CC[C@H](C(=O)Nc2ccncc2)CC1 [ROCK inhibitor, Y-27632]
differentiation into trophoblast ([1]; 201B7 strain on planar mesh coated with parylene or Au, re-addition of the ROCK inhibitor): promoted | secretion amount of hCG, increase as compared with the case where the ROCK inhibitor was not added ([1]; 201B7 strain, mesh coated with Au, 20 μM added from Day 9 of culturing, on Day 17): about twice | secretion amount of hCG, increase as compared with the case where the ROCK inhibitor was not added ([1]; 201B7 strain, mesh coated with Au, 20 μM added from Day 9 of culturing, on Day 21): four times | secretion amount of hCG, course after the increase ([1]; 201B7 strain, mesh coated with Au, 20 μM added from Day 13 of culturing, after Day 17): the secretion amount was maintained thereafter | secretion amount of hCG, increase as compared with the case where the ROCK inhibitor was not added ([1]; 201B7 strain, mesh coated with Au, 20 μM added from Day 13 of culturing, on Day 17): about three times | secretion amount of hCG, course after the increase ([1]; 201B7 strain, mesh coated with parylene, 20 μM added from Day 9 of culturing, after Day 13): the secretion amount was maintained thereafter | secretion amount of hCG, increase as compared with a case where the ROCK inhibitor was not added ([1]; 201B7 strain, mesh coated with parylene, 20 μM added from Day 9 of culturing, on Day 13): about twice | secretion amount of hCG, increase as compared with the case where the ROCK inhibitor was not added ([1]; 201B7 strain, mesh coated with parylene, 20 μM added from Day 13 of culturing, on Day 17): about twice | secretion amount of hCG, increase as compared with the case where the ROCK inhibitor was not added ([1]; 201B7 strain, mesh coated with parylene, 20 μM added from Day 13 of culturing, on Day 21): about three times | differentiation into trophoblast cells (253G1 strain; 253G1 strain on planar mesh coated with parylene or Au, addition of the ROCK inhibitor): promoted | secretion amount of hCG, course after the increase (253G1 strain; mesh coated with Au, 20 μM added from Day 13 of culturing): the secretion amount was maintained thereafter | secretion amount of hCG, course after the increase (253G1 strain; mesh coated with parylene, 20 μM added from Day 9 of culturing): the secretion amount was maintained thereafter
